According to ChEMBL document CHEMBL4342421, “Current scenario of tetrazole hybrids for antibacterial activity” (Eur J Med Chem, 2019):
Converted amounts (≈) assume the structure as drawn.

How the values were obtained:
Escherichia coli [1] = assay: Antimicrobial activity against Escherichia coli assessed as zone of inhibition at 50 ug/ml; assay type: functional; conditions: read-out: IZ
Staphylococcus aureus [2] = assay: Antimicrobial activity against Staphylococcus aureus assessed as zone of inhibition at 50 ug/ml; assay type: functional; conditions: read-out: IZ
Candida albicans [3] = assay: Antifungal activity against Candida albicans assessed as zone of inhibition at 50 ug/ml; assay type: functional; conditions: read-out: IZ
Aspergillus niger [4] = assay: Antifungal activity against Aspergillus niger assessed as zone of inhibition at 50 ug/ml; assay type: functional; conditions: read-out: IZ
Escherichia coli [5] = assay: Antimicrobial activity against Escherichia coli ATCC 25922 after 48 hrs by NCCLS protocol based method; assay type: functional; conditions: ATCC 25922, 48 h
Aspergillus niger [6] = assay: Antifungal activity against Aspergillus niger NCIM 545 after 48 hrs by NCCLS protocol based method; assay type: functional; conditions: NCIM 545, 48 h
Candida albicans [7] = assay: Antifungal activity against Candida albicans MTCC 277 after 48 hrs by NCCLS protocol based method; assay type: functional; conditions: MTCC 277, 48 h
Bacillus subtilis [8] = assay: Antimicrobial activity against Bacillus subtilis NCIM 2250 after 48 hrs by NCCLS protocol based method; assay type: functional; conditions: NCIM 2250, 48 h
Candida albicans [9] = assay: Antifungal activity against Candida albicans; assay type: functional
Micrococcus luteus = assay: Antibacterial activity against Micrococcus luteus; assay type: functional
Staphylococcus aureus [10] = assay: Antimicrobial activity against Staphylococcus aureus; assay type: functional
Salmonella typhimurium = assay: Antimicrobial activity against Salmonella typhimurium; assay type: functional, Salmonella enterica subsp. enterica serovar Typhimurium; conditions: Salmonella enterica
Priestia megaterium = assay: Antimicrobial activity against Bacillus megaterium; assay type: functional
Pseudomonas aeruginosa [11] = assay: Antimicrobial activity against Pseudomonas aeruginosa; assay type: functional
Escherichia coli [12] = assay: Antimicrobial activity against Escherichia coli; assay type: functional
Aspergillus niger [13] = assay: Antifungal activity against Aspergillus niger; assay type: functional
Bacillus subtilis [14] = assay: Antimicrobial activity against Bacillus subtilis; assay type: functional
PANC-1 = assay: Growth inhibition of human PANC1 cells; assay type: functional
SiHa = assay: Growth inhibition of human SiHa cells; assay type: functional
MDA-MB-231 = assay: Growth inhibition of human MDA-MB-231 cells; assay type: functional
Candida albicans [15] = assay: Antifungal activity against Candida albicans assessed as zone of inhibition at 250 ug/ml; assay type: functional; conditions: read-out: IZ
Staphylococcus aureus [16] = assay: Antimicrobial activity against Staphylococcus aureus assessed as zone of inhibition at 250 ug/ml; assay type: functional; conditions: read-out: IZ
Escherichia coli [17] = assay: Antimicrobial activity against Escherichia coli assessed as zone of inhibition at 250 ug/ml; assay type: functional; conditions: read-out: IZ
Bacillus cereus [18] = assay: Antimicrobial activity against Bacillus cereus; assay type: functional
Aspergillus niger [19] = assay: Antifungal activity against Aspergillus niger assessed as zone of inhibition at 250 ug/ml; assay type: functional; conditions: read-out: IZ
Pseudomonas aeruginosa [20] = assay: Antimicrobial activity against Pseudomonas aeruginosa assessed as zone of inhibition at 250 ug/ml; assay type: functional; conditions: read-out: IZ
Bacillus cereus [21] = assay: Antimicrobial activity against Bacillus cereus assessed as zone of inhibition at 250 ug/ml; assay type: functional; conditions: read-out: IZ

O=C(/C=C/c1ccc(Cl)cc1)n1nnnc1-c1ccccc1
zone of inhibition at 50 µg/mL (Escherichia coli [1]): 8 to 15 mm
zone of inhibition at 50 µg/mL (Staphylococcus aureus [2]): 8 to 15 mm
zone of inhibition at 50 µg/mL (Candida albicans [3]): 8 to 15 mm
zone of inhibition at 50 µg/mL (Aspergillus niger [4]): 8 to 15 mm

CCOC(=O)C(C#N)C(c1cc2c(OC)cccc2n2nnnc12)P(=O)(OCC)OCC (stereo not given)
MIC (Escherichia coli [5]): 10 to 20 µg/mL (≈ 21.7 to 43.3 µM)
MIC (Aspergillus niger [6]): 10 to 20 µg/mL (≈ 21.7 to 43.3 µM)
MIC (Candida albicans [7]): 10 to 20 µg/mL (≈ 21.7 to 43.3 µM)
MIC (Bacillus subtilis [8]): 10 to 20 µg/mL (≈ 21.7 to 43.3 µM)

O=C(O)c1cn(C2CC2)c2cc(N3CCNCC3)c(F)cc2c1=O [CIPROFLOXACIN]
MIC (Candida albicans [9]): 25 to 50 µg/mL (≈ 75.4 to 151 µM)
zone of inhibition at 50 µg/mL (Escherichia coli [1]): 19 to 20 mm
zone of inhibition at 50 µg/mL (Staphylococcus aureus [2]): 19 to 20 mm
zone of inhibition at 50 µg/mL (Candida albicans [3]): 19 to 20 mm
MIC (Micrococcus luteus): 25 to 50 µg/mL (≈ 75.4 to 151 µM)
MIC (Staphylococcus aureus [10]): 25 to 50 µg/mL (≈ 75.4 to 151 µM)
MIC (Salmonella typhimurium): 25 to 50 µg/mL (≈ 75.4 to 151 µM)
MIC (Priestia megaterium): 25 to 50 µg/mL (≈ 75.4 to 151 µM)
MIC (Pseudomonas aeruginosa [11]): 25 to 50 µg/mL (≈ 75.4 to 151 µM)
MIC (Escherichia coli [12]): 25 to 50 µg/mL (≈ 75.4 to 151 µM)
zone of inhibition at 50 µg/mL (Aspergillus niger [4]): 19 to 20 mm
MIC (Aspergillus niger [13]): 25 to 50 µg/mL (≈ 75.4 to 151 µM)

CCOC(=O)C(C#N)C(c1cc2ccc(CC)cc2n2nnnc12)P(=O)(OCC)OCC (stereo not given)
MIC (Escherichia coli [5]): 10 to 20 µg/mL (≈ 21.8 to 43.5 µM)
MIC (Aspergillus niger [6]): 10 to 20 µg/mL (≈ 21.8 to 43.5 µM)
MIC (Candida albicans [7]): 10 to 20 µg/mL (≈ 21.8 to 43.5 µM)
MIC (Bacillus subtilis [8]): 10 to 20 µg/mL (≈ 21.8 to 43.5 µM)

O=C(O)c1cn(C2CC2)c2cc(N3CCN(C(=O)CCSc4nnnn4-c4ccc(C(F)(F)F)cc4)CC3)c(F)cc2c1=O
MIC (Bacillus subtilis [14]): 15.6 µg/mL (≈ 24.7 µM)
GI50 (PANC-1): ≤ 1000 nM
MIC (Micrococcus luteus): 15.6 µg/mL (≈ 24.7 µM)
MIC (Salmonella typhimurium): 15.6 µg/mL (≈ 24.7 µM)
MIC (Priestia megaterium): 15.6 µg/mL (≈ 24.7 µM)
GI50 (SiHa): ≤ 1000 nM
MIC (Escherichia coli [12]): 15.6 µg/mL (≈ 24.7 µM)
GI50 (MDA-MB-231): ≤ 1000 nM

CCOC(=O)C(C#N)C(c1cc2cc(OC)ccc2n2nnnc12)P(=O)(OCC)OCC (stereo not given)
MIC (Escherichia coli [5]): 10 to 20 µg/mL (≈ 21.7 to 43.3 µM)
MIC (Aspergillus niger [6]): 10 to 20 µg/mL (≈ 21.7 to 43.3 µM)
MIC (Candida albicans [7]): 10 to 20 µg/mL (≈ 21.7 to 43.3 µM)
MIC (Bacillus subtilis [8]): 10 to 20 µg/mL (≈ 21.7 to 43.3 µM)

O=C(/C=C/c1ccccc1Cl)n1nnnc1-c1ccccc1
zone of inhibition at 50 µg/mL (Escherichia coli [1]): 8 to 15 mm
zone of inhibition at 50 µg/mL (Staphylococcus aureus [2]): 8 to 15 mm
zone of inhibition at 50 µg/mL (Candida albicans [3]): 8 to 15 mm
zone of inhibition at 50 µg/mL (Aspergillus niger [4]): 8 to 15 mm

CCOC(=O)C(C#N)C(c1cc2ccc(OC)cc2n2nnnc12)P(=O)(OCC)OCC (stereo not given)
MIC (Escherichia coli [5]): 10 µg/mL (≈ 21.7 µM)
MIC (Aspergillus niger [6]): 10 µg/mL (≈ 21.7 µM)
MIC (Candida albicans [7]): 10 µg/mL (≈ 21.7 µM)
MIC (Bacillus subtilis [8]): 10 µg/mL (≈ 21.7 µM)

CCOC(=O)C(C#N)C(c1cc2c(OCC)cccc2n2nnnc12)P(=O)(OCC)OCC (stereo not given)
MIC (Escherichia coli [5]): 10 to 20 µg/mL (≈ 21 to 42.1 µM)
MIC (Aspergillus niger [6]): 10 to 20 µg/mL (≈ 21 to 42.1 µM)
MIC (Candida albicans [7]): 10 to 20 µg/mL (≈ 21 to 42.1 µM)
MIC (Bacillus subtilis [8]): 10 to 20 µg/mL (≈ 21 to 42.1 µM)

CC/C(=C(\c1ccccc1)c1ccc(OCCN(C)C)cc1)c1ccccc1 [TAMOXIFEN]
GI50 (PANC-1): 120 to 240 nM
GI50 (SiHa): 120 to 240 nM
GI50 (MDA-MB-231): 120 to 240 nM

Oc1ccc(-c2nnnn2-c2nc3ccccc3s2)cc1O
MIC (Candida albicans [9]): 50 to 100 µg/mL (≈ 161 to 321 µM)
zone of inhibition at 250 µg/mL (Candida albicans [15]): 16 to 26 mm
zone of inhibition at 250 µg/mL (Staphylococcus aureus [16]): 16 to 26 mm
MIC (Staphylococcus aureus [10]): 50 to 100 µg/mL (≈ 161 to 321 µM)
zone of inhibition at 250 µg/mL (Escherichia coli [17]): 16 to 26 mm
MIC (Pseudomonas aeruginosa [11]): 50 to 100 µg/mL (≈ 161 to 321 µM)
MIC (Bacillus cereus [18]): 50 to 100 µg/mL (≈ 161 to 321 µM)
MIC (Escherichia coli [12]): 50 to 100 µg/mL (≈ 161 to 321 µM)
zone of inhibition at 250 µg/mL (Aspergillus niger [19]): 16 to 26 mm
zone of inhibition at 250 µg/mL (Pseudomonas aeruginosa [20]): 16 to 26 mm
zone of inhibition at 250 µg/mL (Bacillus cereus [21]): 16 to 26 mm
MIC (Aspergillus niger [13]): 50 to 100 µg/mL (≈ 161 to 321 µM)

Oc1cccc(-c2nnnn2-c2nc3ccccc3s2)c1
MIC (Candida albicans [9]): 50 to 100 µg/mL (≈ 169 to 339 µM)
zone of inhibition at 250 µg/mL (Candida albicans [15]): 16 to 26 mm
zone of inhibition at 250 µg/mL (Staphylococcus aureus [16]): 16 to 26 mm
MIC (Staphylococcus aureus [10]): 50 to 100 µg/mL (≈ 169 to 339 µM)
zone of inhibition at 250 µg/mL (Escherichia coli [17]): 16 to 26 mm
MIC (Pseudomonas aeruginosa [11]): 50 to 100 µg/mL (≈ 169 to 339 µM)
MIC (Bacillus cereus [18]): 50 to 100 µg/mL (≈ 169 to 339 µM)
MIC (Escherichia coli [12]): 50 to 100 µg/mL (≈ 169 to 339 µM)
zone of inhibition at 250 µg/mL (Aspergillus niger [19]): 16 to 26 mm
zone of inhibition at 250 µg/mL (Pseudomonas aeruginosa [20]): 16 to 26 mm
zone of inhibition at 250 µg/mL (Bacillus cereus [21]): 16 to 26 mm
MIC (Aspergillus niger [13]): 50 to 100 µg/mL (≈ 169 to 339 µM)

COc1ccc(/C=C/C(=O)n2nnnc2-c2ccccc2)cc1
zone of inhibition at 50 µg/mL (Escherichia coli [1]): 8 to 15 mm
zone of inhibition at 50 µg/mL (Staphylococcus aureus [2]): 8 to 15 mm
zone of inhibition at 50 µg/mL (Candida albicans [3]): 8 to 15 mm
zone of inhibition at 50 µg/mL (Aspergillus niger [4]): 8 to 15 mm

CN(C)c1ccc(-c2nnnn2-c2nc3ccccc3s2)cc1
MIC (Candida albicans [9]): 50 to 100 µg/mL (≈ 155 to 310 µM)
zone of inhibition at 250 µg/mL (Candida albicans [15]): 16 to 26 mm
zone of inhibition at 250 µg/mL (Staphylococcus aureus [16]): 16 to 26 mm
MIC (Staphylococcus aureus [10]): 50 to 100 µg/mL (≈ 155 to 310 µM)
zone of inhibition at 250 µg/mL (Escherichia coli [17]): 16 to 26 mm
MIC (Pseudomonas aeruginosa [11]): 50 to 100 µg/mL (≈ 155 to 310 µM)
MIC (Bacillus cereus [18]): 50 to 100 µg/mL (≈ 155 to 310 µM)
MIC (Escherichia coli [12]): 50 to 100 µg/mL (≈ 155 to 310 µM)
zone of inhibition at 250 µg/mL (Aspergillus niger [19]): 16 to 26 mm
zone of inhibition at 250 µg/mL (Pseudomonas aeruginosa [20]): 16 to 26 mm
zone of inhibition at 250 µg/mL (Bacillus cereus [21]): 16 to 26 mm
MIC (Aspergillus niger [13]): 50 to 100 µg/mL (≈ 155 to 310 µM)

CCOC(=O)C(C#N)C(c1cc2ccc(C)cc2n2nnnc12)P(=O)(OCC)OCC (stereo not given)
MIC (Escherichia coli [5]): 10 to 20 µg/mL (≈ 22.5 to 44.9 µM)
MIC (Aspergillus niger [6]): 10 to 20 µg/mL (≈ 22.5 to 44.9 µM)
MIC (Candida albicans [7]): 10 to 20 µg/mL (≈ 22.5 to 44.9 µM)
MIC (Bacillus subtilis [8]): 10 to 20 µg/mL (≈ 22.5 to 44.9 µM)
